One block for each compound: values may come before it.
Columns and labels:
GRP94 [1] = target: T1, GRP94 (Sus scrofa, UniProt Q29092); experiment: Polarity-sensitive fluorescent probe binding to GRP94 (fluorescence emission); design: GRP94 was purified from porcine pancreas; from tissue; host or cells: porcine pancreas (rough microsomes); species or system porcine; settings: for probe interaction with native versus heat shocked GRP94 (emission spectra): 0.5 μM GRP94, 5 μM probe, 30 min at 37° C.
HSP90 [2] = settings: Prodromou et al. (1997); cited from earlier work
GRP94 [3] = target: T1, GRP94; experiment: [3H]-NECA competitive displacement assay; settings: for competition with [3H]-NECA for binding to GRP94: nominal (80 μM) Mg2+; for relative affinities of binding to GRP94 in excess Mg2+: 10 mM Mg(OAc)2; for effect of excess Mg2+ on binding to GRP94: 10 mM Mg(OAc)2 versus nominal magnesium; for relative affinity of GRP94 for the nucleotide: NECA displacement; for binding to GRP94, nucleoside base specificity by [3H]-NECA displacement: competitors at 50 μM
GRP94 [4] = target: T1, GRP94; experiment: Tryptophan fluorescence of GRP94 (tertiary conformational state); type: biochemical, porcine; design: GRP94 was purified from porcine pancreas; from tissue; host or cells: porcine pancreas (rough microsomes); settings: 50 μM NECA, 50 μM geldanamycin, 2.5 mM ATP or 2.5 mM ADP, 1 hour at 37° C., excitation 295 nm
BiP [5] = experiment: [32P]ATP binding assay; design: species or system porcine; settings: 50 μM [32P]ATP, 1 hour on ice
Description: (§1) ATP Binding Assay. Six:g of GRP94, BiP, and Hsp90 was incubated with 50:M (-[^32P] ATP (1000 ΦCi/Φmol) (Amersham Pharmacia Biotech of Piscataway, N.J.) in buffer B on ice for 1 hour. Nitrocellulose filters (BA85) (Schleicher & Schuell of Keene, N.H.) were individually wet in buffer B before use, and bound versus free [^32P]-ATP was separated by vacuum filtration. Filters were washed with 3×2 mL of ice cold buffer B, placed in 5 mL of scintillation fluid, vortexed, and counted.

Hsp90 [6] = experiment: [32P]ATP binding assay; design: species or system rat; settings: 50 μM [32P]ATP, 1 hour on ice
Description: as §1

GRP94 [7] = target: T1, GRP94; experiment: [32P]ATP binding assay; design: GRP94 was purified from porcine pancreas; from tissue; host or cells: porcine pancreas (rough microsomes); species or system porcine; settings: 50 μM [32P]ATP, 1 hour on ice
Description: as §1

casein kinase II = casein kinase II (Homo sapiens, UniProt P68400); experiment: Casein kinase assay; type: biochemical; settings: 180 μM NECA or radicicol in 3.6% DMSO, 5 μg/ml heparin, 5 mM GTP
Description: (§2) Phosphorylation Assays. […] For the casein kinase assay, 1 unit of casein kinase II was incubated as described above, with the addition of 4:M casein. […] The 25:I reaction mixtures were incubated at 37° C. for 1 hour and quenched by addition of 10% trichloroacetic acid. Samples were analyzed by 10% SDS-PAGE gels and the phosphorylated species were quantitated using a Fuji MACBAS1000™ phosphorimaging system (Fuji Medical Systems of Stamford, Conn.).

GRP94 [8] = target: T1, GRP94; experiment: GRP94 autophosphorylation assay; type: biochemical, porcine; design: GRP94 was purified from porcine pancreas; from tissue; host or cells: porcine pancreas (rough microsomes); settings: 180 μM NECA or radicicol in 3.6% DMSO, 5 μg/ml heparin, 5 mM GTP
Description: as §2

GRP94 [9] = target: T1, GRP94; experiment: [3H]-NECA binding assay (vacuum filtration)
BiP [10] = experiment: [3H]-NECA binding assay (vacuum filtration); settings: 20 nM [3H]-NECA, 60 min on ice
GRP94 [11] = target: T1, GRP94; experiment: Isothermal titration calorimetry; type: binding, porcine; design: GRP94 was purified from porcine pancreas; from tissue; host or cells: porcine pancreas (rough microsomes); settings: 5 μM GRP94, 152 μM NECA stock, 25° C.
GRP94 [12] = target: T1, GRP94; experiment: ATPase assay (HPLC); type: biochemical, porcine; design: GRP94 was purified from porcine pancreas; from tissue; host or cells: porcine pancreas (rough microsomes)
Description: Samples were then spun through a CENTRICON®-30 (Amicon of Beverly, Mass.) at 10,000 rpm, 4° C. to separate protein from nucleotide. A final concentration of 50 mM (NH4)2HPO4, pH 7.0, and 4:M AMP, pH 7.0, was added to dilutions of the above samples and centrifuged at 15,200 rpm for 5 minutes at 4° C. 100:L of supernatant was then fractionated on a […] column (Alltech of Deerfield, Ill.), using a Series 1050 Hewlett Packard HPLC system. Elution of nucleotides was performed by step gradient elution using a mobile phase of 150 mM (NH4)2HPO4, pH 5.2, at 1.2 ml/min for the first ten minutes, followed by 300 mM (NH4)2HPO4, pH 5.2, at a flow rate of 2 ml/min for the remainder of the elution. In this protocol, ADP and ATP were well resolved, with ADP eluting at 7 minutes and ATP at 12 minutes. Peak height values were used in calculations of percent hydrolysis and ADP formation. Spontaneous hydrolysis was determined for each ATP concentration in paired incubations lacking GRP94. The AMP was used as an internal reference standard to control for equivalent sample loading.

HSP90 [13] = target: HSP90 (Saccharomyces cerevisiae, UniProt P02829); settings: Roe et al. (1999); cited from earlier work
Sequence of HSP90 (Saccharomyces cerevisiae, UniProt P02829) (P02829 whole entry): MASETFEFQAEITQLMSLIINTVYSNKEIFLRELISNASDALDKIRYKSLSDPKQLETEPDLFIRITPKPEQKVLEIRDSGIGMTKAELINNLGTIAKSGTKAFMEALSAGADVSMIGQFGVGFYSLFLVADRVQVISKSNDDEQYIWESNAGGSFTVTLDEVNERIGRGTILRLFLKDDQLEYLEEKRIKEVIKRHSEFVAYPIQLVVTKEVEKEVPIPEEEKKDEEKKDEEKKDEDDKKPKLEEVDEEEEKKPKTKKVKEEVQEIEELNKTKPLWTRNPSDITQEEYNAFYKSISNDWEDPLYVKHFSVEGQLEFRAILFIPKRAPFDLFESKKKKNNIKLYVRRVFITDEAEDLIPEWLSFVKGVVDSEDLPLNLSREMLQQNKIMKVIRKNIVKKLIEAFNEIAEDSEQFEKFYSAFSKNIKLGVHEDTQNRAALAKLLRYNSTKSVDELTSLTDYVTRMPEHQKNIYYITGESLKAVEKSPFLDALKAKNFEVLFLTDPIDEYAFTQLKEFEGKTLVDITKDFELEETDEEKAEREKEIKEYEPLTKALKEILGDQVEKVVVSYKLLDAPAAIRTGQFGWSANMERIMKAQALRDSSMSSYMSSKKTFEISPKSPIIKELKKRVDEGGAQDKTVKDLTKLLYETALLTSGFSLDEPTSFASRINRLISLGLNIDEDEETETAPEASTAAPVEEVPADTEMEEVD

Sequence of casein kinase II (P68400 whole entry): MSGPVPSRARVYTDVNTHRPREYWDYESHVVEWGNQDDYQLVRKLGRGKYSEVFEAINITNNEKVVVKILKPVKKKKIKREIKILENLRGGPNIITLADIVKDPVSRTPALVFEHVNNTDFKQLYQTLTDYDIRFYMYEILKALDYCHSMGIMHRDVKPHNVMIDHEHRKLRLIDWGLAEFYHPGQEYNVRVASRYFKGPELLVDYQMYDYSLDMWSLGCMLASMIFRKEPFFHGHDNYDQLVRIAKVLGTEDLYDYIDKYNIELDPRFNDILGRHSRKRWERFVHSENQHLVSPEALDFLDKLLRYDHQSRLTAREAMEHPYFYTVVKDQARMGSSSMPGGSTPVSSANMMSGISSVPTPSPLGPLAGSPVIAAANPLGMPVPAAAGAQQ
Sequence of casein kinase II (P67870 whole entry partner): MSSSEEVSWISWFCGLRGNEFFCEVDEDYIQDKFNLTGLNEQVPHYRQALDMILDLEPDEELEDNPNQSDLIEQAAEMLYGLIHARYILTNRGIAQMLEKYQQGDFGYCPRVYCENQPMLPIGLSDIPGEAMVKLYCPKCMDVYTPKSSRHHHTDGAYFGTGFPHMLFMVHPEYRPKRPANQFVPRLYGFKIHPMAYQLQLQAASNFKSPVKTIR
T1 sequence (Q29092 22-804): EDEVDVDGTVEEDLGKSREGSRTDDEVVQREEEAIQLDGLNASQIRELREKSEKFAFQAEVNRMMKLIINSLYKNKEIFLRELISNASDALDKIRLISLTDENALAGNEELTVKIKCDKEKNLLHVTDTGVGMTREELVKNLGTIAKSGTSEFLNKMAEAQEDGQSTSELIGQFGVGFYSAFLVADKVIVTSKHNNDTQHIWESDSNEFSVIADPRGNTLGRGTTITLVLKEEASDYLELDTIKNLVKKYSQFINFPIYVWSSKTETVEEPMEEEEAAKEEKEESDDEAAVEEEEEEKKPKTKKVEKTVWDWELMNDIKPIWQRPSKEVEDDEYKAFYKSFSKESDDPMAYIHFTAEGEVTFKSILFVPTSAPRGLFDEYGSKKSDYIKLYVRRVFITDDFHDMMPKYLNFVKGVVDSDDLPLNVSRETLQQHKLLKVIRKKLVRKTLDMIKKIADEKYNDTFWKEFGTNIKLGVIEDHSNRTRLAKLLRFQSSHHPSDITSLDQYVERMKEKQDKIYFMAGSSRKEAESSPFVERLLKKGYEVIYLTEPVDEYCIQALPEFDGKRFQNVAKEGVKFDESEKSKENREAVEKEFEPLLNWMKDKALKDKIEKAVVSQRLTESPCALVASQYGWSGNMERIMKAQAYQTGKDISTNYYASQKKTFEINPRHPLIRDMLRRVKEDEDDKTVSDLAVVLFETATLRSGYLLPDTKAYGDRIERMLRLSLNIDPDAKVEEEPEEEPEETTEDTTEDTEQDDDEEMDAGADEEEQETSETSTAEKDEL

Compound: O=S(=O)(O)c1cccc2cccc(Nc3ccccc3)c12 [8-ANS, 1,8-anilinonaphthalenesulfonate]
agonist activity for GRP94 activation (GRP94 [1]): lacks agonist activity
probe interaction with native versus heat shocked GRP94 (emission spectra) (GRP94 [1]): displays weak interactions with native GRP94, yet binds avidly following heat shock

Compound: Nc1ncnc2c1ncn2[C@@H]1O[C@H](COP(=O)(O)OP(=O)(O)O)[C@@H](O)[C@H]1O [ADP]
affinity of N-terminal domain of Hsp90 for ADP relative to ATP (HSP90 [2]): four
competition with [3H]-NECA for binding to GRP94 (GRP94 [3]; 20 nM [3H]-NECA): effectively competed
relative affinities of binding to GRP94 in excess Mg2+ (GRP94 [3]): nearly identical relative affinities
effect of excess Mg2+ on binding to GRP94 (GRP94 [3]): markedly stimulated
relative affinity of GRP94 for the nucleotide (GRP94 [3]): quite low
change of GRP94 tryptophan fluorescence (GRP94 [4]): decreased

Compound: Nc1ncnc2c1ncn2[C@@H]1O[C@H](COP(=O)(O)O)[C@@H](O)[C@H]1O [AMP]
competition with [3H]-NECA for binding to GRP94 (GRP94 [3]; 20 nM [3H]-NECA): effectively competed
effect of excess Mg2+ on binding to GRP94 (GRP94 [3]): markedly stimulated
relative affinity of GRP94 for the nucleotide (GRP94 [3]): quite low

Compound: Nc1ncnc2c1ncn2[C@@H]1O[C@H](COP(=O)(O)OP(=O)(O)OP(=O)(O)O)[C@@H](O)[C@H]1O [ATP]
ATP binding (BiP [5]): displayed the expected ATP binding activity
ATP binding (Hsp90 [6]): no ATP binding was observed
molar excess required for 50% inhibition of [3H]-NECA binding (GRP94 [3]; 20 nM [3H]-NECA): ~1000 -fold molar excess
competition with [3H]-NECA for binding to GRP94 (GRP94 [3]; 20 nM [3H]-NECA): effectively competed
relative affinities of binding to GRP94 in excess Mg2+ (GRP94 [3]): nearly identical relative affinities
effect of excess Mg2+ on binding to GRP94 (GRP94 [3]): markedly stimulated
relative affinity of GRP94 for the nucleotide (GRP94 [3]): quite low
binding to GRP94, nucleoside base specificity by [3H]-NECA displacement (GRP94 [3]; 20 nM [3H]-NECA): could bind
efficacy of competing NECA binding, ATP relative to ADP (GRP94 [3]; nominal Mg2+): eight
ATP binding (GRP94 [7]): no ATP binding was observed
change of GRP94 tryptophan fluorescence (GRP94 [4]): decreased

Compound: Nc1ccn([C@@H]2O[C@H](COP(=O)(O)OP(=O)(O)OP(=O)(O)O)[C@@H](O)[C@H]2O)c(=O)n1 [CTP]
binding to GRP94, nucleoside base specificity by [3H]-NECA displacement (GRP94 [3]; 20 nM [3H]-NECA): little to no binding

Compound: CCNC(=O)[C@H]1O[C@@H](n2cnc3c(N)ncnc32)[C@H](O)[C@@H]1O [NECA, N-ethylcarboxamidoadenosine]
effect on casein kinase II activity (casein kinase II): neither NECA nor radicicol, both of which bind to the N-terminal nucleotide binding domain of GRP94, significantly inhibit GRP94 derived or casein kinase II activity below the solvent background
effect of excess Mg2+ on binding to GRP94 (GRP94 [3]): without effect
slope of Hill plot (GRP94 [9]): 1.2
[3H]-NECA binding activity (GRP94 [9]; 20 nM [3H]-NECA, 60 min on ice): readily detectable
binding stoichiometry (GRP94 [9]; radioligand, vacuum filtration): 0.5 mol [^3H]-NECA/mol GRP94 monomer
[3H]-NECA binding activity (BiP [10]): not observed
binding stoichiometry by isothermal titration calorimetry (GRP94 [11]): 1.1 mol NECA/mol GRP94 dimer
effect on GRP94 autophosphorylation (GRP94-derived kinase) activity (GRP94 [8]): neither NECA nor radicicol, both of which bind to the N-terminal nucleotide binding domain of GRP94, significantly inhibit GRP94 derived or casein kinase II activity below the solvent background
effect on GRP94 ATPase activity (GRP94 [12]): sensitive to inhibition by NECA
change of GRP94 tryptophan fluorescence (GRP94 [4]): increased the tryptophan fluorescence

Compound: CCC(=O)c1ccc2cc(N(C)C)ccc2c1 [Prodan, 6-propionyl-2-(dimethylamino)naphthalene]
probe interaction with native versus heat shocked GRP94 (emission spectra) (GRP94 [1]): does not interact with the hydrophobic binding pocket(s) displayed by heat shocked GRP94

Compound: C[C@@H]1C[C@H]2O[C@@H]2/C=C\C=C\C(=O)Cc2c(Cl)c(O)cc(O)c2C(=O)O1 [radicicol]
effect on casein kinase II activity (casein kinase II): neither NECA nor radicicol, both of which bind to the N-terminal nucleotide binding domain of GRP94, significantly inhibit GRP94 derived or casein kinase II activity below the solvent background
expected binding stoichiometry (HSP90 [13]): 2 mol radicicol/mol Hsp90 dimer

Next, values leading:

effect on casein kinase II activity (casein kinase II): markedly attenuated
binding to GRP94, nucleoside base specificity by [3H]-NECA displacement (GRP94 [3]; 20 nM [3H]-NECA): little to no binding
effect on GRP94 autophosphorylation (GRP94-derived kinase) activity (GRP94 [8]): markedly attenuated
Compound: Nc1nc2c(ncn2[C@@H]2O[C@H](COP(=O)(O)OP(=O)(O)OP(=O)(O)O)[C@@H](O)[C@H]2O)c(=O)[nH]1 [GTP]

binding to GRP94, nucleoside base specificity by [3H]-NECA displacement (GRP94 [3]; 20 nM [3H]-NECA): little to no binding
Compound: O=c1ccn([C@@H]2O[C@H](COP(=O)(O)OP(=O)(O)OP(=O)(O)O)[C@@H](O)[C@H]2O)c(=O)[nH]1 [UTP]

relative displacement activity of [3H]-NECA (GRP94 [3]; 20 nM [3H]-NECA): approximating that observed for ADP
effect of excess Mg2+ on binding to GRP94 (GRP94 [3]): without effect
Compound: Nc1ncnc2c1ncn2[C@@H]1O[C@H](CO)[C@@H](O)[C@H]1O [adenosine]

binding to GRP94, nucleoside base specificity by [3H]-NECA displacement (GRP94 [3]; 20 nM [3H]-NECA): could bind
Compound: Nc1ncnc2c1ncn2[C@H]1C[C@H](O)[C@@H](COP(=O)(O)OP(=O)(O)OP(=O)(O)O)O1 [deoxyATP]

effect on casein kinase II activity (casein kinase II): markedly attenuated
effect on GRP94 autophosphorylation (GRP94-derived kinase) activity (GRP94 [8]): markedly attenuated
Compound: heparin
